Patent US9403843B2, “Cysteine protease inhibitors and uses thereof” (The Trustees of Columbia University in the City of New York, priority 2012, dated 2016)
Read-outs that look alike come from different tables or passages of the source.

Experiments:
full-length human Cal1 [1] = target: T1, full-length human Cal1 (Homo sapiens (Human), UniProt P07384); assay: Calpain inhibition FRET assay; type: biochemical
Experimental: Calpain activity was measured using full-length human Cal1 in the presence of a FRET substrate. IC50 values were approximated by co-incubation of varying concentrations of the appropriate inhibitor (10, 100, 500, 1000 nM) in the presence of the FRET substrate (DABCYL)TPLK-SPPSPR-(EDANS) (SEQ ID NO: 5) and activation buffer. […] A peptide inhibitor, Z-LLY-FMK (SEQ ID NO: 6), was used as a positive control.
The Calbiochem InnoZyme activity kit was used for measuring the inhibition effect inhibitors on human erythrocyte calpain 1 activity. […] 20 μM of the FRET substrate, 10 nM of native Cal1, and 20 μM TCEP (reducing agent) were added to the reaction mixture containing assay buffer (Tris [10 mM], NaCl [100 mM], pH 7.4). Cal1 was activated by the addition of 10 μM calcium. Cleavage of the scissile bond amide bond, K-S, releases the fluorophore (EDANS) from the internal quenching molecule (DABCYL), resulting in an increase in fluorescence measured at 320 nm excitation and 480 nm emission wave lengths for 30 min. Each inhibitor was added to the reaction mixture at varying concentrations (10 nM, 100 nM, 1 μM, and 10 μM) to detect inhibition of Cal1 and reduction in fluorescence was measured by 96 well-plate reader. Approximate IC50 values of each compound were generated using linear regression within Graphpad Prism Software.

primary neurons = assay: LD50 in primary neurons; type: cell-based; conditions: YES = LD50 ≧ 50 μM in primary neurons
Cal I = assay: Relative selectivity for Cal I (E64 = 1.0), Table 2; type: biochemical; conditions: relative to E64 = 1.0
[2] = Plasma pharmacokinetics after i.p. administration; type: in vivo; conditions: ICR mice; for time of peak plasma concentration: i.p., 30a 7.57, 33 7.86, 50 7.83 mg/kg; for half-life / bioavailability: mouse, ip, plasma; for bioavailability: after i.p. administration, read-out: absolute bioavailability
Experimental: Plasma concentrations of 30a, 33 and 50 were determined by LC-MS/MS after i.p. administration to ICR mice. The plasma concentrations at each sampling time are shown on FIG. 10. […] Indeed, following i.p. administration of 30a (7.57 mg/kg), 33 (7.86 mg/kg) and 50 (7.83 mg/kg), the peak plasma concentration occurred at 0.25, 0.5 and 0.125 h after dosing, respectively. […] The respective half-lives were ˜0.6 hrs, ˜1.1 hrs and ˜0.6 hrs.

[3] = tested on: Aβ-induced LTP impairment; assay: LTP rescue test; conditions: assessed at 650 nM
Experimental: Residual levels of potentiation were averaged during the last 5 min of LTP.

full-length human Cal1 [4] = target: T1, full-length human Cal1; assay: Calpain inhibition FRET assay; type: biochemical; conditions: Table 3, 20 min incubation, FRET substrate
[5] = Acute and chronic toxicity, maximum tolerated dose; type: in vivo; conditions: mice; for MTD: mouse, in vivo, no malaise or death
Excerpt: For evaluation of acute and chronic toxicity we measured the maximum tolerated dose (MTD) in mice for 30a, 33 and 50.

[6] = target: Full length porcine calpain (Sus scrofa (Pig), UniProt P35750); assay: Calpain inhibition kinetics studies (Suc-LLVY-AMC substrate); type: biochemical
Excerpt: (§1) Papain is representative of a family of typically lysosomal or secreted cysteine proteases, including the human cathepsins (B, C, F, H, K, L1-2, O, S, W, Z). […] Several methods have been reported in the literature for detailed kinetic analysis of the irreversible inhibition of cysteine proteases, including Cal1. […] (SEQ ID NO: 8). Using this substrate, kinetic parameters were derived using the method of Davies and co-workers, whereby “progress curves” were initially obtained measuring product formation as a function of time and fitted to y=P∞*(1−e^(−k*x)) (FIG. 7) (Cuerrier, D. et al., J Biol Chem 2007, 282, 9600-11; herein incorporated by reference in its entirety). […] Kinetic parameters (ki, KI, ki/KI) were obtained from double reciprocal plots (FIG. 7).
(§2) Full length porcine calpain (156 nM), or papain (236 pM) was added to a solution of 100 mM NaCl, 50 mM HEPES, pH 7.6, 1 mM TCEP, 30 μM Suc-LLVY-AMC (SEQ ID NO: 8) substrate, and inhibitor (0.5 to 50 μM). Calpain reactions also contained CaCl2 (1 mM and 100 mM for porcine and rat respectively). Both substrate and inhibitors were dissolved in acetonitrile/DMSO (1:1) with the exception of E-64, dissolved in water. Organic solvent remained <2% in all reactions, and most often <1%. Reactions were carried out in microtiter 96-well plates, with 150 μL per well, 30° C., and product formation was monitored over time by fluorescence (Ex/Em 346/444 nm, with 420 nm cutoff filter). Kinetic values of kobs were determined via non-linear regression using one-phase association analysis and linear plots of 1/kobs vs. 1/[I] provided kinetic constants ki and KI.

papain = papain (Carica papaya (Papaya), UniProt P00784); assay: biochemical; type: biochemical
Excerpt: as §1, §2

APP/PS1 mice = assay: Behavioral rescue assays (contextual fear memory, 2-day RAWM reference memory); type: in vivo
Excerpt: APP/PS1-vehicle: n=15; APP/PS1-67: n=6; APP/PS1-30a: n=10; WT-vehicle: n=15; WT-67=5; WT-30a: n=8, APP/PS1-33: n=11; WT-33: n=8, APP/PS1-50: n=10; WT-50: n=8. P<0.05 in all transgenic groups treated with compound compared to their respective vehicle-treated transgenics.
APP/PS1-vehicle: n=17; APP/PS1-67: n=9; APP/PS1-30a: n=10; WT-vehicle: n=18; WT-67=9; WT-30a: n=9, APP/PS1-33: n=10; WT-33: n=9, APP/PS1-50: n=11; WT-50: n=9.
The ability of compounds to rescue the defects in associative and reference memory in 3 month old APP/PS1 animals was assessed. Capability of ameliorating the defects in contextual fear memory was tested via i.p. administration (FIG. 12). In the 2-day RAWM test, daily injections of the 67, 30a, 33 and 50 from the 2nd month of age were beneficial against the loss of contextual fear memory and reference memory.
Impact of chronic treatment on against memory loss in older APP/PS1 mice (7 months of age) with a more severe plaque load was also investigated. Compounds 67, 33 and 50 were beneficial against memory impairment following chronic administration (FIG. 13).
The ability of a prodrug to rescue the defects in associative and reference memory in 3 month old APP/PS1 animals was assessed. […] Thus, the esterification seems to improve PK but it spoils PD parameters. Compound 89 ameliorates both LTP and memory in 3 month old APP/PS1 mice (FIG. 15). Daily treatment with 89 from the age of 2 months until 3 months ameliorated the defect in LTP (A) contextual fear memory (B) and reference memory (C) in APP/PS1 mice. n=10 for all groups. P<0.05 in transgenics treated with compound compared to their respective vehicle-treated transgenics.

[7] = tested on: calpain-generated spectrin fragments; assay: Spectrin proteolytic degradation products in hippocampi, western blot; type: in vivo; conditions: for prevention of spectrin cleavage by calpains in hippocampi: i.p. treatment for 12 days, doses as for PK
Experimental: Studies were performed to determine capability of lowering levels of spectrin proteolytic degradation products in hippocampi from adult animals. Using western blot analysis, prevention of calpain-generated spectrin fragments was checked following i.p. treatment for 12 days with 30a, 33 and 50 at the same concentrations used for PK assessment. The array of vehicle samples was obtained by loading samples with 5, 10, 15, and 20 μg total protein/lane. Samples from compound treated animals were loaded at 15 μg/lane.

Cal1cat vs CathB = assay: Competition assay for Cal1 vs CathB using the biotinylated epoxide probe; type: binding, rat
Experimental: Anti-biotin western blotting of Cal1cat (Lane 6) or CathB (Lane 7) after incubation with 27 show the expected immunoreactivity of the covalently modified proteins. […] Densitometric analysis, using means from triplicate immunoblots, was used to estimate the modification of each protein by 27 in the presence of inhibitors relative to control (Lane 1: ratio=1.0).
Cal1cat was used in place of the full length enzyme to avoid autocatalysis.
Cal1cat and CathB were pre-treated with inhibitors for 10 min, followed by a 20 min incubation with the biotinylated epoxide, 27, as illustrated in FIG. 4. […] A more quantitative estimate of selectivity was achieved by comparison of band intensities.
The appropriate inhibitor (5 μM) was pre-incubated in a mixture containing Cal1cat (2 μM), CathB (2 μM), TCEP (1 mM), and Ca^2+ (30 μM) for 10 min at 37° C. […] (5 μM) was then added and the mixture incubated an additional 20 min. The reaction was quenched with EDTA (10 μM) and samples were ran using 4-16% SDS PAGE gel, subsequently transferred to PVDF membrane and visualized by Pierce ECL (Enhanced chemiluminescent) western blotting substrate, intensity of each blot was calculated using densitometry software. Relative inhibition of each enzyme was calculated with respect to enzyme activity in the absence of inhibitor. Inhibitor preference to Cal1cat with respect to CathB, was calculated by dividing relative Cal1cat inhibition with relative CathB inhibition of that particular inhibitor.

[8] = Table 2, approximate IC50, read-out: Cal I IC50
[9] = ki/Ki calculated relative to E-64
[10] = mean ± S.D. of triplicate experiments
[11] = 3 month old APP/PS1 mice, 2-day RAWM, daily from 2 months
[12] = 3 month old APP/PS1 mice, daily i.p. from 2 months
[13] = APP/PS1 mice, daily treatment from 2 until 7 months

Sequence of papain (P00784 134-345): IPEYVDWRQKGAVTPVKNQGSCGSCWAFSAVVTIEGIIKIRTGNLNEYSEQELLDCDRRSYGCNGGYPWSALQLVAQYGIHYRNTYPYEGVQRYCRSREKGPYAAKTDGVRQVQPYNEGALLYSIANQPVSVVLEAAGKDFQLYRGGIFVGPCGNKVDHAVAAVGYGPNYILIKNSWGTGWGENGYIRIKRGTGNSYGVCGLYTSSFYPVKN
Sequence of Full length porcine calpain (P35750 whole entry): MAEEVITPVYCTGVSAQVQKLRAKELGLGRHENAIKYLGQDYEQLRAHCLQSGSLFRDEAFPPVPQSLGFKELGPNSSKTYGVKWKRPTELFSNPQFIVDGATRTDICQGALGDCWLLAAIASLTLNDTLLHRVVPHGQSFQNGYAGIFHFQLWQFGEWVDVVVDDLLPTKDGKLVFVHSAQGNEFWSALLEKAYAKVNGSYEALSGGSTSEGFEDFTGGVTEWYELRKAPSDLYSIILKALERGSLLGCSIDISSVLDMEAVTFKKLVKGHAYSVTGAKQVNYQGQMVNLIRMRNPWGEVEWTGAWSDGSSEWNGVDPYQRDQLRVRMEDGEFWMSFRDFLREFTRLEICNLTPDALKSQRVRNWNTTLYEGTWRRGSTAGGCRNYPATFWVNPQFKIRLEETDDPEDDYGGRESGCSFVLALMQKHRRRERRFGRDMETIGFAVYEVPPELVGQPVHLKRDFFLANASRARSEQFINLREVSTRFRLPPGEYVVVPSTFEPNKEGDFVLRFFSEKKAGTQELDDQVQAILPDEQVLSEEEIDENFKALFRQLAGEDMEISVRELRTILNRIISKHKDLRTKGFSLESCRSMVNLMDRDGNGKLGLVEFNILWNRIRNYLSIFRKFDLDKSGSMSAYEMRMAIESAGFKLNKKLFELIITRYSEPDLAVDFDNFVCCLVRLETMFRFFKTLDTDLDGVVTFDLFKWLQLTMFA
Sequence of Full length porcine calpain (P04574 whole entry partner): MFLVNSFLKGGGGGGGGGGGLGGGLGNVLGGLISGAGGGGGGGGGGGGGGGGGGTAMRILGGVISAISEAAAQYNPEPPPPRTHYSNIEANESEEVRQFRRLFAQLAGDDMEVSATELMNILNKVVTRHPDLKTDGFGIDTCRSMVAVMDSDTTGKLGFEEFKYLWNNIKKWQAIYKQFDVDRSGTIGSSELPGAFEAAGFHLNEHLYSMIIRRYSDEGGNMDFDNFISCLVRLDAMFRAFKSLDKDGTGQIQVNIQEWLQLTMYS
T1 sequence (P07384 whole entry): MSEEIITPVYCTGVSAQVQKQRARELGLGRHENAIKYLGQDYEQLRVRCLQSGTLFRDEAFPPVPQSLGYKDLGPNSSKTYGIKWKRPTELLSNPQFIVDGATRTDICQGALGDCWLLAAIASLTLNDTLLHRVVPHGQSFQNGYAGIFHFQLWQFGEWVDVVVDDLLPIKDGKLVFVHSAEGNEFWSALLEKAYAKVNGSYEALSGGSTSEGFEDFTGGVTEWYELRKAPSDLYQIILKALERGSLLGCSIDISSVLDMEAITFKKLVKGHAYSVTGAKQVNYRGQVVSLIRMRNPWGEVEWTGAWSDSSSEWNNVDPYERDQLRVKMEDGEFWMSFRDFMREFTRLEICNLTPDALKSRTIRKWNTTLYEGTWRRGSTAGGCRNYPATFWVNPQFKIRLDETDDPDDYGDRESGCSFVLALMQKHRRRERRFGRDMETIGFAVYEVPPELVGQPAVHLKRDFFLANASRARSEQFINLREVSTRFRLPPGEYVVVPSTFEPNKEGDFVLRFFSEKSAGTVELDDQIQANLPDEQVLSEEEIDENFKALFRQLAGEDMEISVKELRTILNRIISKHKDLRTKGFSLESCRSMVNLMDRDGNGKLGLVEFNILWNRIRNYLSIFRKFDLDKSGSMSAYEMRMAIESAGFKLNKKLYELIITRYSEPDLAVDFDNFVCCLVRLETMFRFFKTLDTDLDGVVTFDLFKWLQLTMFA
T1 sequence (P04632 whole entry partner): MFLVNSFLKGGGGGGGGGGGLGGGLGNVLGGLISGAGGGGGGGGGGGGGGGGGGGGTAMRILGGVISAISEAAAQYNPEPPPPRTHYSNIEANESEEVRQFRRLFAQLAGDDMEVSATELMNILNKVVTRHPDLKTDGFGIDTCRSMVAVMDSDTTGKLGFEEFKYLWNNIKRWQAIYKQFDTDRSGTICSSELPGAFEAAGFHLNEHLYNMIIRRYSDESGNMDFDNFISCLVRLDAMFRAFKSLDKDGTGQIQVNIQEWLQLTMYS

SMILES	IC50 (full-length human Cal1 [1]; [8])	time of peak plasma concentration [2]	half-life [2]	bioavailability [2]	potency for LTP rescue compared with E64 [3]	IC50 (full-length human Cal1 [4])	MTD [5]	reference memory (APP/PS1 mice; [11])	contextual fear memory (APP/PS1 mice; [12])	contextual fear memory (APP/PS1 mice; [13])	reference memory (APP/PS1 mice; [13])	prevention of spectrin cleavage by calpains in hippocampi [7]	other results
CC(=O)NCCCCNC(=O)[C@H](CC(C)C)NC(=O)C1OC1c1ccccc1 (some centres unmarked) [Compound 61]	~1 µM	–	–	–	–	–	–	–	–	–	–	–	LD50 ≧ 50 μM primary neurons (primary neurons): YES; Relative selectivity for Cal I E64 = 1.0 (Cal I): 0.3
O=C(NCc1cn(-c2ccc(F)cc2)nn1)[C@H](Cc1cscn1)NC(=O)[C@H]1O[C@@H]1C(=O)O [Compound 50, (2S,3S)-3-((S)-1-((1-(4-fluorophenyl)-1H-1,2,3-triazol-4-yl)methylamino)-1-oxo-3-(thiazol-4-yl)propan-2-ylcarbamoyl)oxirane-2-carboxylic acid]	0.125 µM	0.125 h	~36 min	41.3%	surpassed E64	0.1 µM	200 mg/kg	beneficial	beneficial	ameliorated	ameliorated	dramatically reduced the amount of fragments	Cal1 inhibition (in words) (full-length human Cal1 [1]): potent activity; Relative Selectivity ([6]; Cal1 over papain, ki/Ki relative to E-64 set at 1.0): 9.3; Ki ([6]; apparent equilibrium constant, full length Cal1, read-out: K1 Calpain1): 2.9 µM; ki Calpain1 ([6]; inhibition rate, full length Cal1): 0.10 s⁻¹; relative selectivity for inhibition of Cal1 over papain (in words) ([6]; ki/Ki as measure, compared with E-64): Cal1 selectivity; rel Calpain1 [6, 9]: 1.1; 10^−4 × ki/Ki Calpain1 [6, 10]: 3.31 ± 0.32; Ki (papain; apparent equilibrium constant, read-out: K1 Papain): 19.2 µM; ki Papain (papain; inhibition rate): 12.7 s⁻¹; rel Papain (papain; [9]): 0.12; 10^−5 × ki/Ki Papain (papain; [10]): 6.62 ± 0.74; memory impairment (APP/PS1 mice; 7 month old APP/PS1 mice, chronic administration): beneficial; brain penetration ([7]; inferred from hippocampal spectrin cleavage): capable of effectively penetrating the brain
Cn1cnc(C[C@H](NC(=O)[C@H]2O[C@@H]2C(=O)O)C(=O)Nc2nc(-c3ccc(F)cc3)cs2)c1 [Compound 36, (2S,3S)-3-((S)-1-(4-(4-fluorophenyl)thiazol-2-ylamino)-3-(1-methyl-1H-imidazol-4-yl)-1-oxopropan-2-ylcarbamoyl)oxirane-2-carboxylic acid]	–	–	–	–	did not surpass	0.225 µM	–	–	–	–	–	–	–
O=C(Nc1nc(-c2ccc(F)cc2)cs1)C(Cc1cnc[nH]1)NC(=O)[C@H]1O[C@@H]1C(=O)O (stereo partly drawn) [Compound 30a, (2S,3S)-3-(1-(4-(4-fluorophenyl)thiazol-2-ylamino)-3-(1H-imidazol-4-yl)-1-oxopropan-2-ylcarbamoyl)oxirane-2-carboxylic acid]	0.1 µM	0.25 h	~36 min	80.4%	–	–	100 mg/kg	beneficial	beneficial	ameliorated	ameliorated	less efficient at preventing the spectrin cleavage	IC50 (full-length human Cal1 [1]; Cal1, values stated in text, read-out: IC50): ~0.1 µM; chronic toxicity, histopathology ([5]; chronic treatment at MTD): nephrotoxicity was noticed; blocking of active site modification by probe 27 (western blot signal) (Cal1cat vs CathB; 10 min pre-treatment, then 20 min with 27): little change in the CathB signal; selectivity for Cal1cat (ratio of Cal1cat versus CathB band intensities) (Cal1cat vs CathB; ratio for probe 27 alone set as 1.0, inhibitor 5 μM): highest selectivity
